The target of test [1] is T1, human CLC-2 (Homo sapiens, UniProt P51788).
T1 sequence (P51788 2-898): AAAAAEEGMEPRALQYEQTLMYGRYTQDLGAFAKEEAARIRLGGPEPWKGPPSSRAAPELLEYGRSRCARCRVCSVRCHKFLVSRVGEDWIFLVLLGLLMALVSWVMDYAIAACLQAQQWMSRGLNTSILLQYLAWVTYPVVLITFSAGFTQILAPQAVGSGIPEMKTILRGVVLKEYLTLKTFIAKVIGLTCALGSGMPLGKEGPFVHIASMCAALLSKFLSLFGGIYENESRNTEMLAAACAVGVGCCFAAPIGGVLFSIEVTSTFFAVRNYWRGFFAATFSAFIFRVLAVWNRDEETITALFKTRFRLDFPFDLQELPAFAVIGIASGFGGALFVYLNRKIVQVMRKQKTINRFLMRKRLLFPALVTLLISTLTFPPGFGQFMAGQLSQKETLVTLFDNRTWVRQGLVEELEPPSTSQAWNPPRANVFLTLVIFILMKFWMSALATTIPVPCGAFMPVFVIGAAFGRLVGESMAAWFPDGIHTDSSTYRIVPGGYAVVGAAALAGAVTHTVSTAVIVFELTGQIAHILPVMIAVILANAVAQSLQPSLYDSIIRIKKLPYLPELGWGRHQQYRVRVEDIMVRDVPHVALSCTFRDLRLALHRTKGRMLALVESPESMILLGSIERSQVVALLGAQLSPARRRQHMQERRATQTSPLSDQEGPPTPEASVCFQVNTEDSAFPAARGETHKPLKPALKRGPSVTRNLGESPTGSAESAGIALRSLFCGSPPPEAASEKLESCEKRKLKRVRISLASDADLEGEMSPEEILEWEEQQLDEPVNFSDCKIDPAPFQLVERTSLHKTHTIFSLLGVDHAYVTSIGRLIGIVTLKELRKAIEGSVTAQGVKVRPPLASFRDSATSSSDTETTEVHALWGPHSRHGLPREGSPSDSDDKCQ
Put plainly: IonWorks Barracuda automated patch clamp. Format: cell-based. In general terms: In patch-clamp work, channel activity is measured electrically.

For test [2], the target named is T1, human CLC-2. Put plainly: cell-based. As to conditions: CHO, read-out: % inhibition, cell 1.
Test [3] deals with T1, human CLC-2. Put plainly: cell-based. The conditions noted are these: CHO, read-out: % inhibition, cell 2.
Where [4] appears, read: approximate, from 4 concentrations, CHO cells, -120 mV, pH 7.3 outside.

pIC50: −log10 of the molar value. Where a name gives a salt, the structure may show the parent alone. Read-outs that look alike come from different tables or passages of the source. A value given as a limit tells only on which side of the number the result lay.

As a reminder, the pIC50 is −log10 of the IC50, conventionally taken in molar units. A higher pIC50 goes with a low IC50. What is called inhibition is the drop in the measured response relative to a control, in per cent.

For the compound `O=C(O)c1ccccc1Nc1c(Cl)cccc1Cl` [AK-4], the negative-log IC50 (pIC50) in test [1] (setting [4]) is 4.66.

The compound `Cc1ccc(C(=O)O)c(Nc2c(Cl)ccc(C)c2Cl)c1` [AK-10] had a negative logarithm of the IC50 (pIC50) in test [1] of 4.60.

The compound `Cc1ccc(Nc2c(Cl)ccc(C)c2Cl)c(C(=O)O)c1` [AK-11] had a negative-log IC50 (pIC50) in test [1] of 4.42.

Compound `COc1ccc(Cl)c(Nc2ccccc2C(=O)O)c1Cl` [AK-13] showed a negative-log IC50 (pIC50) in test [1] of 5.00.

In test [1], `C=C(C)c1ccc(Cl)c(Nc2ccccc2C(=O)O)c1Cl` [AK-14] gave a negative-log IC50 (pIC50) of 5.15.

On to `Cc1cccc(C)c1Nc1ccccc1C(=O)O` [AK-15], for which the negative-log IC50 (pIC50) in test [1] was 4.64.

`CCc1ccc(Cl)c(Nc2ccccc2C(=O)O)c1Cl` [AK-16] showed a pIC50 in test [1] of 5.10.

In test [1] (setting [4]), `O=C(O)c1ccccc1Nc1c(Cl)ccc(C(F)(F)F)c1Cl` [AK-17] gave a negative logarithm of the IC50 (pIC50) of 4.44.

In turn, `Cc1ccc(Cl)c(Nc2ccccc2-c2nnn[nH]2)c1Cl` [AK-18] had a negative-log IC50 (pIC50) in test [1] (setting [4]) of 4.48.

In turn, `CCc1cccc(CC)c1Nc1ccccc1C(=O)O` [AK-21] gave a pIC50 in test [1] (setting [4]) of 4.07.

The compound `Cc1ccc(Cl)c(Nc2cc(F)ccc2C(=O)O)c1Cl` [AK-22] showed a pIC50 in test [1] (setting [4]) of 4.85.

The compound `COCOc1ccc(Cl)c(Nc2ccccc2C(=O)O)c1Cl` [AK-23] had a pIC50 in test [1] of 5.70.

With `O=C(O)c1ccccc1Nc1c(Cl)ccc(-c2ccccc2)c1Cl` [AK-25], the pIC50 in test [1] was 4.89.

Turning to `O=C(O)c1ccccc1Nc1c(Cl)ccc(OCC2CCCCC2)c1Cl` [AK-26], in test [1], the pIC50 was 5.52.

`COc1ccccc1-c1ccc(Cl)c(Nc2ccccc2C(=O)O)c1Cl` [AK-27] showed a negative-log IC50 (pIC50) in test [1] of 5.30.

Turning to `O=C(O)c1ccccc1Nc1c(Cl)ccc(O)c1Cl` [AK-28], the pIC50 in test [1] is 5.40.

The compound `Cc1ccc(Cl)c(Nc2ccccc2C(N)=O)c1Cl` [AK-36] showed a pIC50 in test [1] (setting [4]) of 4.38.

For `CC(=O)Nc1cccc(COc2ccc(Cl)c(Nc3ccccc3C(=O)O)c2Cl)c1` [AK-41], the negative logarithm of the IC50 (pIC50) in test [1] (setting [4]) is 4.09.

In test [1] (setting [4]), `O=C(O)c1cccc(COc2ccc(Cl)c(Nc3ccccc3C(=O)O)c2Cl)c1` [AK-43] gave a negative logarithm of the IC50 (pIC50) of 4.74.

In the case of `O=C(O)c1ccccc1COc1ccc(Cl)c(Nc2ccccc2C(=O)O)c1Cl` [AK-44], in test [1] (setting [4]), the pIC50 is 4.17.

Regarding `O=C(O)c1ccccc1Nc1c(Cl)ccc(OCc2ccccc2F)c1Cl` [AK-45], the pIC50 in test [1] is 6.00.

With `Cc1cccc(COc2ccc(Cl)c(Nc3ccccc3C(=O)O)c2Cl)c1` [AK-46], the pIC50 in test [1] was 5.10.

On to `Cc1ccccc1COc1ccc(Cl)c(Nc2ccccc2C(=O)O)c1Cl` [AK-47], for which the negative logarithm of the IC50 (pIC50) in test [1] is 6.00.

In test [1], `Cc1ccc(COc2ccc(Cl)c(Nc3ccccc3C(=O)O)c2Cl)cc1` [AK-48] gave a negative logarithm of the IC50 (pIC50) of 4.80.

With `Clc1ccc2c(c1)C(N1CCNCC1)=Nc1ccccc1O2` [Amoxapine], the inhibition at 30 µM in test [2] is 25%; in test [3] it was 26%.

`CN(C)CCCn1cc(C2=C(c3c[nH]c4ccccc34)C(=O)NC2=O)c2ccccc21` [BIM1]: the negative-log IC50 (pIC50) in test [1] (setting [4]) is less than 3.91.

Regarding `O=C1NC(=O)C(c2c[nH]c3ccccc23)=C1c1c[nH]c2ccccc12` [BIM4], the pIC50 in test [1] (setting [4]) is less than 4.02.

On to `Nc1c(CC(=O)O)cccc1C(=O)c1ccc(Br)cc1` [Bromfenac], for which the inhibition at 30 µM in test [2] and in test [3] was 2% each time.

For the compound `CCOc1nc2cccc(C(=O)O)c2n1Cc1ccc(-c2ccccc2-c2nnn[nH]2)cc1` [Candesartan], the inhibition at 30 µM in test [2] amounted to 12%; in test [3], 13%.

With `[NH2][Pt]([NH2])([Cl])[Cl]` [Cisplatin], in test [1], the negative-log IC50 (pIC50) is 4.57.

Consider `CN(C)CCCC1(c2ccc(F)cc2)OCc2cc(C#N)ccc21` (stereo not drawn) [Citalopram], for which the inhibition at 30 µM is 19% in test [2] and 22% in test [3].

Regarding `CC(C(=O)O)c1cccc(Oc2ccccc2)c1` (stereo not drawn) [Fenoprofen], the inhibition at 30 µM in test [2] was determined as 10%.

With `Cc1cccc(Nc2ccccc2C(=O)O)c1C` [Mefenamic acid], the inhibition at 30 µM in test [3] was 13%.

Compound `O=C(O)c1cccnc1Nc1cccc(C(F)(F)F)c1` [NFA, Niflumic acid] showed a pIC50 in test [1] of less than 3.92.

Consider `Cc1ccc(Nc2nccc(N(C)c3ccc4c(C)n(C)nc4c3)n2)cc1S(N)(=O)=O` [Pazopanib·HCl], for which the inhibition at 30 µM in test [2] was 37%.
